In patent US20220184222A1, “BICYCLE TOXIN CONJUGATES AND USES THEREOF” (BicycleTx Limited, priority 2019, published 2022):
“And” between values parts separate entries of the source, which are not always exact repeats. Equal values may be shown once. “Also recorded” adds a separate entry of the source. Starred links: 1 amine or outer side, 2 acyl side, 3 side chain; linkers in the order of their positions; H or OH if unused. Non-standard residues stand in square brackets, D forms with d. Residues, ends and D or L forms follow the SMILES beside them. *: point of attachment. Dolaproine = CO[C@@H]([C@@H]1CCCN1)[C@@H](C)C(=O)O; Dil = CC[C@H](C)[C@H](NC)[C@@H](CC(=O)O)OC; PABC = O=C(OCc1ccc(N[*:1])cc1)[*:2]; X1 = O=C(CCCC(=O)*)ON1C(=O)CCC1=O; X2 = C[C@@H](N*)[C@@H](O)c1ccccc1; Cit = NC(=O)NCCC[C@H](N)C(=O)O; NMeV = CN[C@H](C(=O)O)C(C)C

System: PC-3 xenograft
Experiment: In vivo efficacy in PC-3 xenograft, female BALB/c nude mice (Example 2)
Design: species or system Mus Musculus
Protocol: The objective of the research was to evaluate the in vivo anti-tumor efficacy of BT5528 and BCY10188 in treatment of PC-3 xenograft model in BALB/c nude mice.
Each mouse was inoculated subcutaneously at the right flank with PC-3 tumor cells ([…]) in 0.2 ml of PBS for tumor development. 60 animals were randomized when the average tumor volume reached 464 mm^3. The test article administration and the animal numbers in each group were shown in the experimental design table.
1) 0.1 mg/mL solution (with 50 mM Acetate 10% sucrose pH 5 buffer) was prepared before the operation. 2) The syringe loaded with dosing solution was fixed on the Syringe Pump Machine, then a needle was bound to the pipe jointed with the syringe. 3) The injection volume (10 ml/kg, calculated based on the bodyweight), injection time (1 h for this study), and infusion rate was set to the Pump, then a quick running was conducted to check the working condition of the whole system. 4) The mouse was fixed comfortably, then the operator injected the syringe needle into the caudal vein, and fixed the mouse tail as well as the needle firmly and stably(no need anesthesia for less than 1 h) 5) Then the infusion was started, and the operator kept monitoring the dosing condition till the end.
1) 0.130 mg/mL solution (with 50 mM Acetate 10% sucrose pH 5 buffer) was prepared before the operation. 2) The pump was fully filled with the dosing solution (˜200 μl, see the hand book of the Alzet pump 2001D). 3) The animal in group 12 was anesthetized with 80 mg/kg pentobarbital sodium, and the pump was embedded under the skin of left side of mouse. 4) 26 h later, the animals were anesthetized with pentobarbital sodium, and the pump was taken out. (The infusion rate is not stable at the first 1-3 h, thus the pump was taken out at 26 h instead of 24 h to ensure that all solution was pumped-out).
The major endpoint was to see if the tumor growth could be delayed or mice could be cured. Tumor volume was measured 3 times per week in two dimensions using a caliper, and the volume was expressed in mm^3 using the formula: V=0.5 a×b^2 where a and b are the long and short diameters of the tumor, respectively. The tumor size was then used for calculations of T/C value. The T/C value (in percent) is an indication of antitumor effectiveness; T and C are the mean volumes of the treated and control groups, respectively, on a given day.
TGI was calculated for each group using the formula: TGI (%)=[1−(Ti−T0)/(Vi−V0)]×100; Ti is the average tumor volume of a treatment group on a given day, T0 is the average tumor volume of the treatment group on the day of treatment start, Vi is the average tumor volume of the vehicle control group on the same day with Ti, and V0 is the average tumor volume of the vehicle group on the day of treatment start.
Tumor growth inhibition rate of BT5528 and BCY10188 in the PC-3 xenograft model was calculated based on tumor volume measurements on day 17 after the start of treatment.

[1] = 1 mpk iv 1 h infusion qw*2 weeks, day 17
[2] = 1 mpk sc 24 h minipump qw*2 weeks, day 17

`CC[C@H](C)[C@@H]([C@@H](CC(=O)N1CCC[C@H]1[C@H](OC)[C@@H](C)C(=O)N[C@H](C)[C@@H](O)c1ccccc1)OC)N(C)C(=O)[C@@H](NC(=O)[C@H](C(C)C)N(C)C(=O)OCc1ccc(NC(=O)[C@H](CCCNC(N)=O)NC(=O)[C@@H](NC(=O)CCCC(=O)ON2C(=O)CCC2=O)C(C)C)cc1)C(C)C` [BT5528] (X1-V[Cit][PABC][NMeV]V[Dil][Dolaproine]-X2) was tested, and the “tumor relapse after ceasing the treatment” value (1 mg/kg qw*2 weeks via intravenous bolus, intravenous infusion or subcutaneous ALZET pump) was “obvious relapse 2 weeks later after ceasing the treatment”, the “efficacy across dosing paradigms” value (1 mg/kg, iv bolus (QW×2 and QW×4), 1 h iv infusion (QW×2), 24 h subcutaneous osmotic pump (QW×2)) was “equivalent efficacy with a wide range of dosing paradigms; also recorded: comparable anti-tumor activity” and the Tumor volume (0.11 mpk iv qw*4 weeks, day 0) was 463 mm^3. It also gave a Tumor volume (0.11 mpk iv qw*4 weeks, day 2) of 634 mm^3, a Tumor volume (0.11 mpk iv qw*4 weeks, day 4) of 725 mm^3 and a Tumor volume (0.11 mpk iv qw*4 weeks, day 6) of 861 mm^3. It also gave a Tumor volume (0.11 mpk iv qw*4 weeks, day 8) of 1172 mm^3, a Tumor volume (0.11 mpk iv qw*4 weeks, day 10) of 1247 mm^3 and a Tumor volume (0.11 mpk iv qw*4 weeks, day 13) of 1333 mm^3. It also gave a Tumor volume (0.11 mpk iv qw*4 weeks, day 15) of 1568 mm^3, a T/C (0.11 mpk iv qw*4 weeks, day 17) of 88.1% and a TGI (0.11 mpk iv qw*4 weeks, day 17) of 15.3%. The Tumor volume (0.11 mpk iv qw*4 weeks, day 17) was 1780 mm^3 and 1780 ± 116 mm^3, the Tumor volume (0.33 mpk iv qw*4 weeks, day 0) was 463 mm^3 and the Tumor volume (0.33 mpk iv qw*4 weeks, day 2) was 597 mm^3. For the same compound, the Tumor volume (0.33 mpk iv qw*4 weeks, day 4) was 530 mm^3, the Tumor volume (0.33 mpk iv qw*4 weeks, day 6) was 525 mm^3 and the Tumor volume (0.33 mpk iv qw*4 weeks, day 8) was 584 mm^3. It also gave a Tumor volume (0.33 mpk iv qw*4 weeks, day 10) of 536 mm^3, a Tumor volume (0.33 mpk iv qw*4 weeks, day 13) of 493 mm^3 and a Tumor volume (0.33 mpk iv qw*4 weeks, day 15) of 544 mm^3. The T/C (0.33 mpk iv qw*4 weeks, day 17) was 23.9%, the TGI (0.33 mpk iv qw*4 weeks, day 17) was 98.8% and the Tumor volume (0.33 mpk iv qw*4 weeks, day 17) was 482 mm^3 and 482 ± 22 mm^3. The Tumor volume (1 mpk iv 1 h infusion qw*2 weeks, day 0) was 463 mm^3, the Tumor volume (1 mpk iv 1 h infusion qw*2 weeks, day 2) was 538 mm^3 and the Tumor volume (1 mpk iv 1 h infusion qw*2 weeks, day 4) was 539 mm^3. For the same compound, the Tumor volume (1 mpk iv 1 h infusion qw*2 weeks, day 6) was 467 mm^3, the Tumor volume (1 mpk iv 1 h infusion qw*2 weeks, day 8) was 399 mm^3 and the Tumor volume (1 mpk iv 1 h infusion qw*2 weeks, day 10) was 330 mm^3. For the same compound, the Tumor volume (1 mpk iv 1 h infusion qw*2 weeks, day 13) was 260 mm^3, the Tumor volume (1 mpk iv 1 h infusion qw*2 weeks, day 15) was 213 mm^3 and the T/C [1] was 10.3%. For the same compound, the TGI [1] was 116.4%, the Tumor volume [1] was 209 mm^3 and 209 ± 27 mm^3 and the Tumor volume (1 mpk iv qw*2 weeks, day 0) was 464 mm^3. The Tumor volume (1 mpk iv qw*2 weeks, day 2) was 572 mm^3, the Tumor volume (1 mpk iv qw*2 weeks, day 4) was 529 mm^3 and the Tumor volume (1 mpk iv qw*2 weeks, day 6) was 496 mm^3. The Tumor volume (1 mpk iv qw*2 weeks, day 8) was 427 mm^3, the Tumor volume (1 mpk iv qw*2 weeks, day 10) was 361 mm^3 and the Tumor volume (1 mpk iv qw*2 weeks, day 13) was 269 mm^3. It also gave a Tumor volume (1 mpk iv qw*2 weeks, day 15) of 239 mm^3, a T/C (1 mpk iv qw*2 weeks, day 17) of 10.6% and a TGI (1 mpk iv qw*2 weeks, day 17) of 116.0%. For the same compound, the Tumor volume (1 mpk iv qw*2 weeks, day 17) was 214 mm^3 and 214 ± 33 mm^3, the Tumor volume (1 mpk iv qw*4 weeks, day 0) was 463 mm^3 and the Tumor volume (1 mpk iv qw*4 weeks, day 2) was 610 mm^3. For the same compound, the Tumor volume (1 mpk iv qw*4 weeks, day 4) was 579 mm^3, the Tumor volume (1 mpk iv qw*4 weeks, day 6) was 538 mm^3 and the Tumor volume (1 mpk iv qw*4 weeks, day 8) was 476 mm^3. For the same compound, the Tumor volume (1 mpk iv qw*4 weeks, day 10) was 408 mm^3, the Tumor volume (1 mpk iv qw*4 weeks, day 13) was 341 mm^3 and the Tumor volume (1 mpk iv qw*4 weeks, day 15) was 299 mm^3. The T/C (1 mpk iv qw*4 weeks, day 17) was 14.5%, the TGI (1 mpk iv qw*4 weeks, day 17) was 111% and the Tumor volume (1 mpk iv qw*4 weeks, day 17) was 282 mm^3 and 293 mm^3 and 293 ± 66 mm^3. For the same compound, the Tumor volume (1 mpk sc 24 h minipump qw*2 weeks, day 0) was 464 mm^3, the Tumor volume (1 mpk sc 24 h minipump qw*2 weeks, day 2) was 517 mm^3 and the Tumor volume (1 mpk sc 24 h minipump qw*2 weeks, day 4) was 64 mm^3. The Tumor volume (1 mpk sc 24 h minipump qw*2 weeks, day 6) was 480 mm^3, the Tumor volume (1 mpk sc 24 h minipump qw*2 weeks, day 8) was 443 mm^3 and the Tumor volume (1 mpk sc 24 h minipump qw*2 weeks, day 10) was 393 mm^3. The Tumor volume (1 mpk sc 24 h minipump qw*2 weeks, day 13) was 298 mm^3, the Tumor volume (1 mpk sc 24 h minipump qw*2 weeks, day 15) was 249 mm^3 and the T/C [2] was 11.1%. For the same compound, the TGI [2] was 115.5%, the Tumor volume [2] was 223 mm^3 and 223 ± 46 mm^3 and the Tumor volume (3 mpk iv qw*4 weeks, day 0) was 464 mm^3. It also gave a Tumor volume (3 mpk iv qw*4 weeks, day 2) of 566 mm^3, a Tumor volume (3 mpk iv qw*4 weeks, day 4) of 526 mm^3 and a Tumor volume (3 mpk iv qw*4 weeks, day 6) of 462 mm^3. The Tumor volume (3 mpk iv qw*4 weeks, day 8) was 377 mm^3, the Tumor volume (3 mpk iv qw*4 weeks, day 10) was 320 mm^3 and the Tumor volume (3 mpk iv qw*4 weeks, day 13) was 249 mm^3. The Tumor volume (3 mpk iv qw*4 weeks, day 15) was 243 mm^3, the T/C (3 mpk iv qw*4 weeks, day 17) was 10.2% and the TGI (3 mpk iv qw*4 weeks, day 17) was 116.7%. The Tumor volume (3 mpk iv qw*4 weeks, day 17) was 205 mm^3 and 205 ± 14 mm^3.
